This passage reports IC50 results from patent publication US9169209B2, “Compounds and compositions for the inhibition of NAMPT” (FORMA TM, LLC, priority 2011, dated 2015).

SMILES strings stand for the structures. Like-named read-outs stand apart in the source and are kept apart here.

In one assay the test system is A2780 cells. As to the kind of experiment: In-Vitro Cell Proliferation Assay (SRB, 72 hours). Type of assay: cell-based. To be noted: A2780 cells, 72 hours, sulforhodamine B, read-out: A2780 IC50. How it is done: After overnight incubation at 37° C. and 5% CO2, the compound titrations were performed in a separate dilution plate by serially diluting the compounds in DMSO to make a 1000× stock. The compounds were then further diluted to 10× final concentration in culture media, whereupon 20 μL of each dilution was added to the plated cells with controls (e.g. DMSO and blank) to make a final volume of 200 μL. The final DMSO concentration in each well was 0.1%. The plates were then incubated for 72 hours at 37° C. in a 5% CO2 incubator. The number of viable cells was then assessed using sulforhodamine B (SRB) assay. Cells were fixed at 4° C. for 1 hour with the addition of 50 μL 30% trichloroacetic acid (TCA) to make a final concentration of 6% TCA. The plates were washed four times with H2O and allowed to dry for at least 1 hour, whereupon 100 μL of a 4% SRB in 1% acetic acid solution was added to each well and incubated at room temperature for at least 30 minutes. The plates were then washed three times with 1% acetic acid, dried, and treated with 100 μL of 10 mM Tris-Base solution. The plates were then read in a microplate reader at an absorbance of 570 nm. Background was generated on a separate plate with media only.
First, the signals from the background plate are averaged and then the background was subtracted from the test plates.
wherein x denotes the average signal of the compound-treated cells and y denotes the average signal of the DMSO-treated cells.
wherein X denotes the compound concentration 1, Y denotes the compound concentration 2, XX denotes the % inhibition at compound concentration 1 (X), and YY denotes the % inhibition at compound concentration 2 (Y).

The target in the next assay is NAMPT (Homo sapiens (Human), UniProt P43490). As to the kind of experiment: Biochemical Inhibition Assay (NAMPT enzymatic reaction, NMN quantified by mass spectrometry). The note with it: recombinant His-tagged NAMPT, 33 nM; 1 μM NAM; read-out: Biochem IC50. On the procedure: Recombinant His-tagged NAMPT was produced in E. coli cells, purified over a Ni column, and further purified over a size-exclusion column by XTAL Biostructures.
The NAMPT enzymatic reactions were carried out in Buffer A (50 mM Hepes pH 7.5, 50 mM NaCl, 5 mM MgCl2, and 1 mM THP) in 96-well V-bottom plates. The compound titrations were performed in a separate dilution plate by serially diluting the compounds in DMSO to make a 100× stock. […] The compound and enzyme mix was incubated for 15 minutes at room temperature, then 10 μL of 10× substrate and co-factors in Buffer A were added to the test well to make a final concentration of 1 μM NAM, 100 μM 5-Phospho-D-ribose 1-diphosphate (PRPP), and 2.5 mM Adenosine 5′-triphosphate (ATP). The reaction was allowed to proceed for 30 minutes at room temperature, then was quenched with the addition of 11 μL of a solution of formic acid and L-Cystathionine to make a final concentration of 1% formic acid and 10 μM L-Cystathionine. Background and signal strength was determined by addition (or non-addition) of a serial dilution of NMN to a pre-quenched enzyme and cofactor mix.
A mass spectrometry-based assay was used to measure the NAMPT reaction product (NMN) and the internal control (L-Cystathionine). NMN and L-Cystathionine were detected using the services of Biocius Lifesciences with the RapidFire system. In short, the NMN and L-Cystathionine are bound to a graphitic carbon cartridge in 0.1% formic acid, eluted in 30% acetonitrile buffer, and injected into a Sciex 4000 mass spectrometer. The components of the sample were ionized with electrospray ionization and the positive ions were detected. […] The fragments are quantified and the analyzed by the following method.
First the NMN signal is normalized to the L-Cystathionine signal by dividing the NMN signal by the L-Cystathionine signal for each well. The signal from the background wells are averaged and subtracted from the test plates.
Wherein x denotes the average signal of the compound treated wells and y denotes the average signal of the DMSO treated wells.
IC50s are Determined Using Excel and this Formula.
Wherein X denotes the compound concentration 1, Y denotes the compound concentration 2, XX denotes the % inhibition at compound concentration 1 (X), and YY denotes the % inhibition at compound concentration 2 (Y).

Chain of NAMPT (P43490 whole entry): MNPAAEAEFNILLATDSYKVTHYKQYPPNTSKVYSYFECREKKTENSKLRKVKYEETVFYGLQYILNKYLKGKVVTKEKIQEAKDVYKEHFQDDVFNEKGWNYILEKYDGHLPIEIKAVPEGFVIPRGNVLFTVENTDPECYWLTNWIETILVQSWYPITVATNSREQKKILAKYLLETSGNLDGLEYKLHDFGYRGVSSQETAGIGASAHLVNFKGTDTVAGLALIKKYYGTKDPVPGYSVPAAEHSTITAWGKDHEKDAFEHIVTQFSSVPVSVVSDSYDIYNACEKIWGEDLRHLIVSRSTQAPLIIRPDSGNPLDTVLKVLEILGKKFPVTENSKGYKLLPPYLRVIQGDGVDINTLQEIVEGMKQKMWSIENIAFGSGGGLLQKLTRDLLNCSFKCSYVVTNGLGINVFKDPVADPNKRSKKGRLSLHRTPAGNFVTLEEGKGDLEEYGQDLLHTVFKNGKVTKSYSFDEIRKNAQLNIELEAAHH

As for `Cc1ccncc1S(=O)(=O)c1ccc(NC(=O)/C=C/c2cccnc2)cc1` [(2E)-N-[4-(4-methylpyridine-3-sulfonyl)phenyl]-3-(pyridin-3-yl)prop-2-enamide], the half-inhibitory concentration (IC50) with A2780 cells (Homo sapiens, A2780, 72 h) is 100 to 1000 nM; at NAMPT, 20.4 nM.

As for `COc1cncc(S(=O)(=O)c2ccc(NC(=O)/C=C/c3cccnc3)cc2)c1` [(2E)-N-[4-(5-methoxypyridine-3-sulfonyl)phenyl]-3-(pyridin-3-yl)prop-2-enamide], the IC50 is 86.3 nM in the assay with A2780 cells (Homo sapiens, A2780, 72 h) and 15.6 nM on NAMPT.

For `Cc1cncc(S(=O)(=O)c2ccc(NC(=O)/C=C/c3cccnc3)cc2)c1` [(2E)-N-[4-(5-methylpyridine-3-sulfonyl)phenyl]-3-(pyridin-3-yl)prop-2-enamide], the half-inhibitory concentration (IC50) with A2780 cells (Homo sapiens, A2780, 72 h) was determined as 74.4 nM; on NAMPT it was 18.1 nM.

As for `Cc1ccc(S(=O)(=O)c2ccc(NC(=O)/C=C/c3cccnc3)cc2)s1` [(2E)-N-[4-(5-methylthiophene-2-sulfonyl)phenyl]-3-(pyridin-3-yl)prop-2-enamide], the half-inhibitory concentration (IC50) is 100 to 1000 nM in the assay with A2780 cells (Homo sapiens, A2780, 72 h) and 16.6 nM on NAMPT.

As to `O=C(/C=C/c1cccnc1)Nc1ccc(S(=O)(=O)c2ccccc2)cc1` [(2E)-N-[4-(benzenesulfonyl)phenyl]-3-(pyridin-3-yl)prop-2-enamide], the IC50 in the assay on A2780 cells (Homo sapiens, A2780, 72 h) is 81 nM; on NAMPT, 4 nM.

Take `O=C(/C=C/c1cccnc1)Nc1ccc(S(=O)(=O)c2cncc3ccccc23)cc1` [(2E)-N-[4-(isoquinoline-4-sulfonyl)phenyl]-3-(pyridin-3-yl)prop-2-enamide]: the IC50 was 21.7 nM with A2780 cells (Homo sapiens, A2780, 72 h) and 2.45 nM at NAMPT.

Take `O=C(/C=C/c1cccnc1)Nc1ccc(S(=O)(=O)c2cccc3ccccc23)cc1` [(2E)-N-[4-(naphthalene-1-sulfonyl)phenyl]-3-(pyridin-3-yl)prop-2-enamide]: the half-maximal inhibitory concentration (IC50) with A2780 cells (Homo sapiens, A2780, 72 h) came to 18.1 nM; on NAMPT it was 4.2 nM.

With `O=C(/C=C/c1cccnc1)Nc1ccc(S(=O)(=O)c2cccc3c2Oc2ccccc2S3)cc1` [(2E)-N-[4-(phenoxathiine-4-sulfonyl)phenyl]-3-(pyridin-3-yl)prop-2-enamide], the 50% inhibitory concentration (IC50) with A2780 cells (Homo sapiens, A2780, 72 h) was 50.1 nM; at NAMPT it was 7.2 nM.

For the compound `O=C(/C=C/c1cccnc1)NCc1ccc(S(=O)(=O)N2CC3CCC(C2)O3)cc1` [(2E)-N-[(4-{8-oxa-3-azabicyclo[3.2.1]octane-3-sulfonyl}phenyl)methyl]-3-(pyridin-3-yl)prop-2-enamide], the 50% inhibitory concentration (IC50) with A2780 cells (Homo sapiens, A2780, 72 h) is 386 nM; at NAMPT, 3 nM.

Consider `CN(C)c1ncc(S(=O)(=O)c2ccc(NC(=O)/C=C/c3cccnc3)cc2)cn1` [(2E)-N-{4-[2-(dimethylamino)pyrimidine-5-sulfonyl]phenyl}-3-(pyridin-3-yl)prop-2-enamide], for which the half-maximal inhibitory concentration (IC50) was 73.1 nM in the assay with A2780 cells (Homo sapiens, A2780, 72 h) and 7.9 nM at NAMPT.

Turning to `O=C(/C=C/c1cccnc1)Nc1ccc(S(=O)(=O)N2CCC(N3CCOCC3)CC2)cc1` [(2E)-N-{4-[4-(morpholin-4-yl)piperidine-1-sulfonyl]phenyl}-3-(pyridin-3-yl)prop-2-enamide], the concentration for half-maximal inhibition (IC50) turned out to be 210 nM with A2780 cells (Homo sapiens, A2780, 72 h) and 10 nM on NAMPT.

Turning to `CN(C)c1ccc(S(=O)(=O)c2ccc(NC(=O)/C=C/c3cccnc3)cc2)cn1` [(2E)-N-{4-[6-(dimethylamino)pyridine-3-sulfonyl]phenyl}-3-(pyridin-3-yl)prop-2-enamide], the IC50 is 78.1 nM in the assay with A2780 cells (Homo sapiens, A2780, 72 h) and 5.1 nM on NAMPT.

For `O=C(/C=C/c1cccnc1)Nc1ccc(S(=O)(=O)c2cc(Cl)ccc2Cl)cc1` [(2E)-N-{4-[(2,5-dichlorobenzene)sulfonyl]phenyl}-3-(pyridin-3-yl)prop-2-enamide], the IC50 was 100 to 1000 nM with A2780 cells (Homo sapiens, A2780, 72 h) and 22.4 nM on NAMPT.

In the case of `COc1ccc(C)cc1S(=O)(=O)c1ccc(NC(=O)/C=C/c2cccnc2)cc1` [(2E)-N-{4-[(2-methoxy-5-methylbenzene)sulfonyl]phenyl}-3-(pyridin-3-yl)prop-2-enamide], the IC50 worked out at 7.3 nM in the assay with A2780 cells (Homo sapiens, A2780, 72 h) and 1.8 nM at NAMPT.

On to `COc1ccccc1S(=O)(=O)c1ccc(NC(=O)/C=C/c2cccnc2)cc1` [(2E)-N-{4-[(2-methoxybenzene)sulfonyl]phenyl}-3-(pyridin-3-yl)prop-2-enamide], for which the half-inhibitory concentration (IC50) in the assay on A2780 cells (Homo sapiens, A2780, 72 h) is 24.1 nM; on NAMPT, 7.7 nM.

As to `Cc1ccccc1S(=O)(=O)c1ccc(NC(=O)/C=C/c2cccnc2)cc1` [(2E)-N-{4-[(2-methylbenzene)sulfonyl]phenyl}-3-(pyridin-3-yl)prop-2-enamide], the IC50 in the assay with A2780 cells (Homo sapiens, A2780, 72 h) is 100 to 1000 nM; at NAMPT, 33.3 nM.

On to `O=C(/C=C/c1cccnc1)Nc1ccc(S(=O)(=O)c2ccc(Cl)c(Cl)c2)cc1` [(2E)-N-{4-[(3,4-dichlorobenzene)sulfonyl]phenyl}-3-(pyridin-3-yl)prop-2-enamide], for which the 50% inhibitory concentration (IC50) with A2780 cells (Homo sapiens, A2780, 72 h) is 100 to 1000 nM; at NAMPT, 72.9 nM.

In the case of `COc1ccc(S(=O)(=O)c2ccc(NC(=O)/C=C/c3cccnc3)cc2)cc1OC` [(2E)-N-{4-[(3,4-dimethoxybenzene)sulfonyl]phenyl}-3-(pyridin-3-yl)prop-2-enamide], the IC50 in the assay on A2780 cells (Homo sapiens, A2780, 72 h) stood at 43.6 nM; at NAMPT, 2.5 nM.

With `O=C(/C=C/c1cccnc1)Nc1ccc(S(=O)(=O)c2cc(Cl)cc(Cl)c2)cc1` [(2E)-N-{4-[(3,5-dichlorobenzene)sulfonyl]phenyl}-3-(pyridin-] [(2E)-N-{4-[(3,5-dichlorobenzene)sulfonyl]phenyl}-3-(pyridin-3-yl)prop-2-enamide], the results for the IC50 in the assay on A2780 cells and at NAMPT were 186 nM and 50.5 nM, respectively.

As to `COc1cc(OC)cc(S(=O)(=O)c2ccc(NC(=O)/C=C/c3cccnc3)cc2)c1` [(2E)-N-{4-[(3,5-dimethoxybenzene)sulfonyl]phenyl}-3-(pyridin-3-yl)prop-2-enamide], the 50% inhibitory concentration (IC50) with A2780 cells (Homo sapiens, A2780, 72 h) was 44.3 nM; on NAMPT, 20.3 nM.

Take `Cc1cc(C)cc(S(=O)(=O)c2ccc(NC(=O)/C=C/c3cccnc3)cc2)c1` [(2E)-N-{4-[(3,5-dimethylbenzene)sulfonyl]phenyl}-3-(pyridin-3-yl)prop-2-enamide]: the concentration for half-maximal inhibition (IC50) with A2780 cells (Homo sapiens, A2780, 72 h) was 95.4 nM; on NAMPT, 17.1 nM.

Consider `COc1ccc(S(=O)(=O)c2ccc(NC(=O)/C=C/c3cccnc3)cc2)cc1Cl` [(2E)-N-{4-[(3-chloro-4-methoxybenzene)sulfonyl]phenyl}-3-(pyridin-3-yl)prop-2-enamide], for which the IC50 with A2780 cells (Homo sapiens, A2780, 72 h) turned out to be 123 nM; at NAMPT it was 5.8 nM.

Consider `Cc1ccc(S(=O)(=O)c2ccc(NC(=O)/C=C/c3cccnc3)cc2)cc1Cl` [(2E)-N-{4-[(3-chloro-4-methylbenzene)sulfonyl]phenyl}-3-(pyridin-3-yl)prop-2-enamide], for which the IC50 in the assay with A2780 cells (Homo sapiens, A2780, 72 h) was found to be 199 nM; on NAMPT, 8.6 nM.

Turning to `CCCOc1ccc(S(=O)(=O)c2ccc(NC(=O)/C=C/c3cccnc3)cc2)cc1Cl` [(2E)-N-{4-[(3-chloro-4-propoxybenzene)sulfonyl]phenyl}-3-(pyridin-3-yl)prop-2-enamide], the IC50 in the assay with A2780 cells (Homo sapiens, A2780, 72 h) was 100 to 1000 nM; on NAMPT, 5.6 nM.

As for `O=C(/C=C/c1cccnc1)Nc1ccc(S(=O)(=O)c2cc(F)cc(Cl)c2)cc1` [(2E)-N-{4-[(3-chloro-5-fluorobenzene)sulfonyl]phenyl}-3-(pyridin-3-yl)prop-2-enamide], the IC50 came to 179 nM in the assay on A2780 cells (Homo sapiens, A2780, 72 h) and 124 nM at NAMPT.

As for `COc1cc(Cl)cc(S(=O)(=O)c2ccc(NC(=O)/C=C/c3cccnc3)cc2)c1` [(2E)-N-{4-[(3-chloro-5-methoxybenzene)sulfonyl]phenyl}-3-(pyridin-3-yl)prop-2-enamide], the IC50 worked out at 100 nM in the assay with A2780 cells (Homo sapiens, A2780, 72 h) and 22 nM on NAMPT.
